In publication PMC11763264, “Antibacterial and Antifungal Activities of Linear and Cyclic Peptides Containing Arginine, Tryptophan, and Diphenylalanine” (Antibiotics, 2025):
Values after ≈ are worked out from the molar mass of the structure shown. Non-standard residues stand in square brackets, D forms with d. Residues, ends and D or L forms follow the SMILES beside them. Dip = N[C@H](C(=O)O)C(c1ccccc1)c1ccccc1

How the values were obtained:
Test in all cases: microbe, parasite or virus in culture
A. fumigatus (Af-293) = format: cell-based, Aspergillus fumigatus; conditions: RPMI 1640 with 2% D-glucose, HEPES, 10^6 cells/mL, 24 and 48 h at 35 °C, no visible growth, triplicates, repeated twice
Experimental: (§1) The antifungal activity of all ten synthesized linear and cyclic peptides was evaluated against C. albicans (ATCC 60193), C. parapsilosis (ATCC 22019), and A. fumigatus (AF-293). Fluconazole and amphotericin B were used as positive controls for this study. The MIC was determined at concentrations in wells with no visible fungal growth.
A. fumigatus (Af-293) was cultured on Sabouraud dextrose agar (SDA) (Lot #3431660, Oxoid) for 48–72 h at 35 °C to obtain fresh and mature colonies which reached the proper sporulation then used to prepare the inoculum. The colonies were covered with Phosphate-Buffered Saline (PBS) containing 0.025% Tween-20, scraped from the plate, and carefully collected into a sterile tube. The suspension was centrifuged at 3000 RPM for 5 min after the separation between conidia and hyphae. The supernatant was discarded, and the pellet was resuspended in 5 mL of PBS.
Peptide concentrations of 50, 25, 12.5, 6.25, and 3.1 μg/mL were tested in triplicate. Each well of a 96-well plate was inoculated with the prepared inoculum suspension, which was diluted with RPMI 1640 medium containing L-glutamine, supplemented with 2% D-glucose, and the pH adjusted using HEPES buffer. The plates were incubated for 50 min at 35 °C to achieve a final cell concentration of 10^6 cells/mL. The control wells contained the same inoculum without any compound. The plates were then incubated for 24 and 48 h at 35 °C. Fungal growth was visualized, and the minimum inhibitory concentration (MIC) was determined as the lowest peptide concentration, where no growth was observed.

[1] = system: C. parapsilosis (ATCC 22019); format: cell-based, Candida parapsilosis
Experimental: as §1
(§2) In this study, C. albicans and C. parapsilosis were cultured on Yeast Peptone Dextrose (YPD) agar containing 1% w/v yeast extract, 2% w/v peptone, 2% w/v D-glucose, and 1.5% agar. A single colony from the agar was selected and cultured in Tryptone soy broth supplemented with 0.1% D-glucose, then incubated for 24 h at 37 °C. The cells were washed twice with PBS by centrifugation at 2000 RPM for 5 min. The pellet was resuspended in 5 mL of PBS, diluted in RPMI 1640 with L-glutamine, supplemented with 2% D-glucose, and the pH adjusted using HEPES buffer. The suspension was then incubated for 50 min at 35 °C to achieve a final cell concentration of 10^6 cells/mL.
(§3) Peptide concentrations of 50, 25, 12.5, 6.25, and 3.1 μg/mL were tested in triplicate and repeated twice. Each well of a 96-well plate was inoculated with the prepared inoculum suspension, which was diluted with RPMI media to a final volume of 200 μL per well. The control well received the same inoculum without any compound. The plates were incubated for 24 h at 37 °C. Fungal and microbial growth were visually observed in the control wells, and the minimum inhibitory concentration (MIC) was determined as the lowest concentration at which no growth was detected in the wells. Amphotericin B was used as a standard antifungal drug.

C. albicans (ATCC 60193) = format: cell-based, Candida albicans
Experimental: as §1, §2, §3

S. aureus (ATCC 29213) = format: cell-based, Staphylococcus aureus; conditions: ATCC 29213, 24 h
Experimental: (§4) The antibacterial activity of all ten synthesized linear and cyclic peptides was evaluated against MRSA (ATCC BAA-1556), S. aureus (ATCC 29213), E. faecium (ATCC 700221), S. pneumoniae (ATCC 51938), E. faecalis (ATCC 29212), B. subtilis (ATCC-6633), K. pneumoniae (ATCC BAA-1705), P. aeruginosa (ATCC 27883), and E. coli (ATCC 25922). Meropenem and daptomycin were used as positive controls for this study. Certain peptides are marked as “NT” (not tested) against specific bacterial strains based on initial screening data. […] The MIC was determined by micro-broth dilution protocol, where the minimal concentrations were determined to be in wells with no visible bacterial growth.
(§5) All bacterial experiments were carried out in a laminar flow hood (Labconco, Kansas City, MO, USA). The bacterial strains were cultured following the guidelines set by the Clinical Laboratory Standards Institute (CLSI). Antibacterial assays were performed using a standard microtiter dilution method as described in previous studies. The minimum inhibitory concentration (MIC) refers to the lowest peptide concentration that inhibits bacterial growth in wells with no visible bacterial growth. MIC was determined by micro-broth dilution. Bacteria were cultured overnight in 6 mL of Luria Broth (LB). A stock solution of the peptide was prepared in water and DMSO, and a test compound solution with a concentration of 256 µg/mL was made in LB. Meropenem, with a solubility of 8 mg/mL, was prepared as a stock solution at 4 mg/500 µL. An aliquot of the overnight bacteria culture was diluted in normal saline (NS, 1 mL) until achieving a 0.5 McFarland turbidity (1.5 × 10^8 bacterial cell CFU/mL). A 0.5 McFarland compared solution (60 µL) was added to Mueller Hinton Broth (MH) 8940 µL to generate a 1/150 dilution. A 200 µL test compound solution was added to the first well of a 96-well plate, and the remaining wells (2–12) were filled with 100 µL of MH media using a multi-channel pipette from a sterile reservoir. A concentration of […] of the tested peptides was prepared from a stock solution of the samples for testing in Muller−Hinton broth MH media. Peptides stock solution was dissolved in 5% DMSO in water, and the final concentration of DMSO in the first well of assay plate was 2.5% DMSO/H2O and diluted across the assay plate.
(§6) A 100 µL sample from well 1 was pipetted into well 2, and the solution was mixed thoroughly by pipetting up and down. Next, 100 µL was transferred from well 2 to well 3, followed by thorough mixing. This 2-fold serial dilution process continued through well 11, with no additions made to well 12. The final 100 µL from well 11 was discarded. After completing the serial dilution, each well (1–12) contained 100 µL of solution. The bacterial culture in MH media was vortexed and transferred to a sterile reservoir, from which 100 µL was added to each well using a 12-channel pipette. (Note: The dilutions were further diluted upon adding the bacterial solution; for example, the concentration in well 1 started at […] after the addition of the bacterial culture.) The plates were incubated overnight at 37 °C for 24 h. All experiments were performed in triplicate and repeated twice, with controls consisting of bacteria in MH media and positive controls of daptomycin or meropenem.

MRSA (ATCC BAA-1556) = format: cell-based, Methicillin-Resistant Staphylococcus aureus; conditions: ATCC BAA-1556, 24 h
Experimental: as §4, §5, §6

B. subtilis (ATCC-6633) = format: cell-based, Bacillus subtilis; conditions: ATCC-6633, 24 h
Experimental: as §4, §5, §6

E. faecium (ATCC 700221) = format: cell-based, Enterococcus faecium; conditions: ATCC 700221, 24 h
Experimental: as §4, §5, §6

[2] = system: S. pneumoniae (ATCC 51938); format: cell-based, Streptococcus pneumoniae; conditions: ATCC 51938, 24 h
Experimental: as §4, §5, §6

E. faecalis (ATCC 29212) = format: cell-based, Enterococcus faecalis; conditions: ATCC 29212, 24 h
Experimental: as §4, §5, §6

[3] = system: P. aeruginosa (ATCC 27883); format: cell-based, Pseudomonas aeruginosa; conditions: ATCC 27883, 24 h
Experimental: as §4, §5, §6

E. coli (ATCC 25922) = format: cell-based, Escherichia coli; conditions: ATCC 25922, 24 h
Experimental: as §4, §5, §6

[4] = system: K. pneumoniae (ATCC BAA-1705); format: cell-based, Klebsiella pneumoniae; conditions: ATCC BAA-1705, 24 h
Experimental: as §4, §5, §6

[5] = Lodderomyces parapsilosis, ATCC22019, RPMI 1640 with 2% D-glucose, HEPES, 10^6 cells/mL, 24 h at 37 °C, no visible growth, triplicates, repeated twice
[6] = Candida albicans, ATCC60193, RPMI 1640 with 2% D-glucose, HEPES, 10^6 cells/mL, 24 h at 37 °C, no visible growth, triplicates, repeated twice

Row | MIC [1, 5] [µM] | MIC (C. albicans (ATCC 60193); [6]) [µM] | MIC (S. aureus (ATCC 29213)) [µM] | MIC (MRSA (ATCC BAA-1556)) [µM] | MIC (B. subtilis (ATCC-6633)) [µM] | MIC (E. faecium (ATCC 700221)) [µM] | MIC [2] [µM] | MIC (E. faecalis (ATCC 29212)) [µM] | MIC ([1]; ATCC 22019, 24 h) [µM] | MIC (C. albicans (ATCC 60193); ATCC 60193, 24 h) [µM] | MIC [3] [µM] | MIC (E. coli (ATCC 25922)) [µM] | MIC [4] [µM] | SMILES | MIC (A. fumigatus (Af-293); Aspergillus fumigatus) [µM] | MIC (A. fumigatus (Af-293)) [µM]
1 | 0.42 (≈ 0.388 µg/mL) | 0.42 (≈ 0.388 µg/mL) |  |  |  |  |  |  |  |  |  |  |  | C[C@@H]1[C@H](O)[C@@H](C)/C=C/C=C/C=C/C=C/C=C/C=C/C=C/[C@H](O[C@@H]2O[C@H](C)[C@@H](O)[C@H](N)[C@@H]2O)C[C@@H]2O[C@](O)(C[C@@H](O)C[C@@H](O)[C@H](O)CC[C@@H](O)C[C@@H](O)CC(=O)O[C@H]1C)C[C@H](O)[C@H]2C(=O)O [Amphotericin B, reference compound] | 0.84 (≈ 0.776 µg/mL) | 
2 |  |  | 0.62 (≈ 1 µg/mL) | 1.2 (≈ 1.94 µg/mL) | 0.3 (≈ 0.486 µg/mL) | 1.2 (≈ 1.94 µg/mL) | 4.9 (≈ 7.94 µg/mL) | 9.87 (≈ 16 µg/mL) |  |  |  |  |  | CCCCCCCCCC(=O)N[C@@H](Cc1c[nH]c2ccccc12)C(=O)N[C@H](CC(N)=O)C(=O)N[C@@H](CC(=O)O)C(=O)N[C@@H]1C(=O)NCC(=O)N[C@@H](CCCN)C(=O)N[C@@H](CC(=O)O)C(=O)N[C@H](C)C(=O)N[C@@H](CC(=O)O)C(=O)NCC(=O)N[C@H](CO)C(=O)N[C@@H]([C@H](C)CC(=O)O)C(=O)N[C@@H](CC(=O)c2ccccc2N)C(=O)O[C@@H]1C [Daptomycin, reference compound] |  | 
3 | 3.3 (≈ 1.01 µg/mL) | 4.9 (≈ 1.5 µg/mL) |  |  |  |  |  |  |  |  |  |  |  | OC(Cn1cncn1)(Cn1cncn1)c1ccc(F)cc1F [Fluconazole, reference compound] | > 209 | >209
4 |  |  |  | 3.1 (≈ 5.54 µg/mL) |  |  |  |  | 7.0 (≈ 12.5 µg/mL) | 7.0 (≈ 12.5 µg/mL) | 25 (≈ 44.7 µg/mL) | 12.5 (≈ 22.3 µg/mL) | 12.5 (≈ 22.3 µg/mL) | N=C(N)NCCC[C@@H]1NC(=O)[C@H](Cc2c[nH]c3ccccc23)NC(=O)[C@H](CCCNC(=N)N)NC(=O)[C@H](Cc2c[nH]c3ccccc23)NC(=O)[C@H](CCCNC(=N)N)NC(=O)[C@H](C(c2ccccc2)c2ccccc2)NC(=O)[C@H](CCCNC(=N)N)NC(=O)[C@H](C(c2ccccc2)c2ccccc2)NC(=O)[C@H](CCCNC(=N)N)NC(=O)[C@H](Cc2c[nH]c3ccccc23)NC1=O [[(DipR)2(WR)3]] (cyclo([Dip]R[Dip]RWRWRWR)) |  | 1.7 (≈ 3.04 µg/mL)
5 |  |  |  | 3.1 (≈ 5.65 µg/mL) |  |  |  |  | 6.8 (≈ 12.4 µg/mL) | 6.8 (≈ 12.4 µg/mL) | 25 (≈ 45.6 µg/mL) | 12.5 (≈ 22.8 µg/mL) | 12.5 (≈ 22.8 µg/mL) | N=C(N)NCCC[C@@H]1NC(=O)[C@H](Cc2c[nH]c3ccccc23)NC(=O)[C@H](CCCNC(=N)N)NC(=O)[C@H](C(c2ccccc2)c2ccccc2)NC(=O)[C@H](CCCNC(=N)N)NC(=O)[C@H](C(c2ccccc2)c2ccccc2)NC(=O)[C@H](CCCNC(=N)N)NC(=O)[C@H](C(c2ccccc2)c2ccccc2)NC(=O)[C@H](CCCNC(=N)N)NC(=O)[C@H](Cc2c[nH]c3ccccc23)NC1=O [[(DipR)3(WR)2]] (cyclo([Dip]R[Dip]R[Dip]RWRWR)) |  | 1.7 (≈ 3.1 µg/mL)
6 |  |  |  | 3.1 (≈ 5.77 µg/mL) |  |  |  |  | 6.7 (≈ 12.5 µg/mL) | 6.7 (≈ 12.5 µg/mL) | 25 (≈ 46.5 µg/mL) | 12.5 (≈ 23.3 µg/mL) | 25 (≈ 46.5 µg/mL) | N=C(N)NCCC[C@@H]1NC(=O)[C@H](Cc2c[nH]c3ccccc23)NC(=O)[C@H](CCCNC(=N)N)NC(=O)[C@H](C(c2ccccc2)c2ccccc2)NC(=O)[C@H](CCCNC(=N)N)NC(=O)[C@H](C(c2ccccc2)c2ccccc2)NC(=O)[C@H](CCCNC(=N)N)NC(=O)[C@H](C(c2ccccc2)c2ccccc2)NC(=O)[C@H](CCCNC(=N)N)NC(=O)[C@H](C(c2ccccc2)c2ccccc2)NC1=O [[(DipR)4(WR)]] (cyclo([Dip]R[Dip]R[Dip]R[Dip]RWR)) |  | 1.7 (≈ 3.16 µg/mL)
7 |  |  |  | 3.1 (≈ 5.42 µg/mL) |  |  |  |  | 7.1 (≈ 12.4 µg/mL) | 14.3 (≈ 25 µg/mL) | 25 (≈ 43.7 µg/mL) | 12.5 (≈ 21.9 µg/mL) | 12.5 (≈ 21.9 µg/mL) | N=C(N)NCCC[C@@H]1NC(=O)[C@H](Cc2c[nH]c3ccccc23)NC(=O)[C@H](CCCNC(=N)N)NC(=O)[C@H](Cc2c[nH]c3ccccc23)NC(=O)[C@H](CCCNC(=N)N)NC(=O)[C@H](C(c2ccccc2)c2ccccc2)NC(=O)[C@H](CCCNC(=N)N)NC(=O)[C@H](Cc2c[nH]c3ccccc23)NC(=O)[C@H](CCCNC(=N)N)NC(=O)[C@H](Cc2c[nH]c3ccccc23)NC1=O [[(DipR)(WR)4]] (cyclo([Dip]RWRWRWRWR)) |  | 1.8 (≈ 3.15 µg/mL)
